Holding throughout (format): biochemical
For test [1], the target named is T1, GASC1 (KDM4C, JMJD2C) (Homo sapiens, UniProt Q9H3R0).
T1 construct: 1-349; host or cells: E. coli
T1 sequence (Q9H3R0 1-349): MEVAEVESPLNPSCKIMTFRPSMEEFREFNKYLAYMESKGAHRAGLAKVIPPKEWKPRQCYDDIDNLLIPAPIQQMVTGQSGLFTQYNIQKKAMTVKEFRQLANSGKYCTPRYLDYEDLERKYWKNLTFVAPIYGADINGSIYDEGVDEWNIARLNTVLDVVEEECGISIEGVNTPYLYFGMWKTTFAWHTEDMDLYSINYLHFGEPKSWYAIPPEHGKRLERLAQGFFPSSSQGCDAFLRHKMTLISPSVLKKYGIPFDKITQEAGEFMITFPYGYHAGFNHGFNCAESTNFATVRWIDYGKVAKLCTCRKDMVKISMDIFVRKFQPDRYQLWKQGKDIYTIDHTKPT
Description: Histone lysine demethylase AlphaLISA assay, GASC1. The following applies: substrate BK9M3. In short, it runs like this: (§1)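 Each enzyme was preincubated 10 min, then 10 min with compound (added in 3% DMSO solution in enzyme buffer) before substrate addition and reaction at room temperature. Demethylation was detected by AlphaLISA: acceptor beads 60 min in the dark, then streptavidin donor beads, incubated and read; IC50 values determined.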
Background: Alpha assays give light when donor and acceptor beads are brought close together.

Test [2] addresses T2, JARID1C (KDM5C) (Homo sapiens, UniProt P41229).
T2 construct: 2-1560; purchased BPS; host or cells: Bac (baculovirus)
As to the kind of experiment: Histone lysine demethylase AlphaLISA assay, JARID1C. To be noted: substrate H3K4M3B. Here is the method: (§2) Example 2: Histone Lysine Demethylase AlphaLISA Assays for IC50 Value Determination
(§3) Assays are performed analogously to the protocol described by Perkin Elmer (Roy et al. Perkin Elmer Technical Note: AlphaLISA #12, April 2011).
(§4) Enzymes are dissolved in enzyme buffer and incubated for 10 min before 5 μL is added to 5 μL 3% DMSO solutions of compounds in enzyme buffer. Incubated for another 10 minutes, before 5 μL substrate solution is added and the reaction mixture is incubated at room temperature for the given period. 10 μL acceptor beads, suspended at given dilutions in Epigenetic Buffer (Perkin Elmer AL008) from stock, are added and the suspension is incubated 60 minutes in the dark at room temperature, before 10 μL suspension (at the given dilutions in Epigenetic Buffer) of streptavidin donor beads (Perkin Elmer 6760002) in Epigenetic Buffer is added. After incubation at room temperature in the dark the plates are read. Reaction conditions are seen in Table 2b.

The target of test [3] is T3, JMJD2A (KDM4A) (Homo sapiens, UniProt O75164).
T3 construct: 1-350; purchased BPS, Bioscience, US; host or cells: E. coli
T3 sequence (O75164 1-350): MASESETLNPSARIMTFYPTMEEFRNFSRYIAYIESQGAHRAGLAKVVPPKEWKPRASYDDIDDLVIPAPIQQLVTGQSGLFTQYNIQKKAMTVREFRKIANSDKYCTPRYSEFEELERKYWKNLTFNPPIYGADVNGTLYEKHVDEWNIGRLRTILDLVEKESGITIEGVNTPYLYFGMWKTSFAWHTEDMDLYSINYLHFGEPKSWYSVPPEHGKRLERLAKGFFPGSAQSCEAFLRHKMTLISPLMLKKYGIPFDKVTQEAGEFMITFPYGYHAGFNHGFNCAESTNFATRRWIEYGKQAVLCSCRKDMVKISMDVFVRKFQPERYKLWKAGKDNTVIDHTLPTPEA
Description: Histone lysine demethylase AlphaLISA assay, JMJD2A. To be noted: substrate BK9M3. Here is the method:
as §2, §3, §4

The target in test [4] is T4, JMJD3 (KDM6B) (Homo sapiens, UniProt O15054).
T4 construct: 1043-end; purchased BPS; host or cells: Bac (baculovirus)
T4 sequence (O15054 1043-1682 isoform O15054-1 limits assumed): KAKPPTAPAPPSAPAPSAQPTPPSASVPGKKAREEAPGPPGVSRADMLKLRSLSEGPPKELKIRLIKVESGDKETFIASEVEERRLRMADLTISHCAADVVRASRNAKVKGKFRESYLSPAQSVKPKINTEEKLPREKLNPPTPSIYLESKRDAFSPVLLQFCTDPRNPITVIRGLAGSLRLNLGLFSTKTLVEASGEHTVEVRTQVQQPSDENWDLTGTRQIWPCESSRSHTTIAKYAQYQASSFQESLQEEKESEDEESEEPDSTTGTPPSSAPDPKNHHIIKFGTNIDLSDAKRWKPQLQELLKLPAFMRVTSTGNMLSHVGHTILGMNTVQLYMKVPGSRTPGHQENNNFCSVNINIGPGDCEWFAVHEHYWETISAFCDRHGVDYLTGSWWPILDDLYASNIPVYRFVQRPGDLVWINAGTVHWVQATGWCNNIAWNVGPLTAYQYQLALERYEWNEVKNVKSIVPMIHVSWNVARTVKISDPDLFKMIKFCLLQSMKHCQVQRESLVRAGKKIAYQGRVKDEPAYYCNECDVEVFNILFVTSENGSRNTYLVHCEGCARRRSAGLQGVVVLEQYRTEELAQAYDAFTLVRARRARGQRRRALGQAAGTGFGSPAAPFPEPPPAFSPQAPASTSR
Description: Histone lysine demethylase AlphaLISA assay, JMJD3. To be noted: substrate BK27M3. Here is the method: as §2, §3, §4

In test [5] the target is T5, PHF8 (KDM7) (Homo sapiens, UniProt Q9UPP1).
T5 construct: KDM7 (PHF8); BRIC; 1-1322; Bac
T5 sequence (Q9UPP1 37-477 limits assumed): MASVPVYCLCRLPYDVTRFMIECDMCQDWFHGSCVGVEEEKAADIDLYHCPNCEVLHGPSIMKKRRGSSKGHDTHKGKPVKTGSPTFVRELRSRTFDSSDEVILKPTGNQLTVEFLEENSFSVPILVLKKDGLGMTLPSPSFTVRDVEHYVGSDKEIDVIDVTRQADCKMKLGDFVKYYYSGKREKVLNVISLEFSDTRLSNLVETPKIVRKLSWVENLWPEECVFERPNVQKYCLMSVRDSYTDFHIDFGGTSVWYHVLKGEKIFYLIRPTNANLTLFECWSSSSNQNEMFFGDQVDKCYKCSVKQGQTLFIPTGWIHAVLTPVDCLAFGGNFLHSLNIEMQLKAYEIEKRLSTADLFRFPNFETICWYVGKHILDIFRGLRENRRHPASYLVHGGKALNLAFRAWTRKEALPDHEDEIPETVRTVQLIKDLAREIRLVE
Description: Histone lysine demethylase AlphaLISA assay, PHF8. The following applies: substrate BK9M2. Here is the method: as §2, §3, §4

For test [6], the target named is T6, PLU1 (KDM5B) (Homo sapiens, UniProt Q9UGL1).
T6 construct: 1-809; host or cells: E. coli
T6 sequence (Q9UGL1 1-809): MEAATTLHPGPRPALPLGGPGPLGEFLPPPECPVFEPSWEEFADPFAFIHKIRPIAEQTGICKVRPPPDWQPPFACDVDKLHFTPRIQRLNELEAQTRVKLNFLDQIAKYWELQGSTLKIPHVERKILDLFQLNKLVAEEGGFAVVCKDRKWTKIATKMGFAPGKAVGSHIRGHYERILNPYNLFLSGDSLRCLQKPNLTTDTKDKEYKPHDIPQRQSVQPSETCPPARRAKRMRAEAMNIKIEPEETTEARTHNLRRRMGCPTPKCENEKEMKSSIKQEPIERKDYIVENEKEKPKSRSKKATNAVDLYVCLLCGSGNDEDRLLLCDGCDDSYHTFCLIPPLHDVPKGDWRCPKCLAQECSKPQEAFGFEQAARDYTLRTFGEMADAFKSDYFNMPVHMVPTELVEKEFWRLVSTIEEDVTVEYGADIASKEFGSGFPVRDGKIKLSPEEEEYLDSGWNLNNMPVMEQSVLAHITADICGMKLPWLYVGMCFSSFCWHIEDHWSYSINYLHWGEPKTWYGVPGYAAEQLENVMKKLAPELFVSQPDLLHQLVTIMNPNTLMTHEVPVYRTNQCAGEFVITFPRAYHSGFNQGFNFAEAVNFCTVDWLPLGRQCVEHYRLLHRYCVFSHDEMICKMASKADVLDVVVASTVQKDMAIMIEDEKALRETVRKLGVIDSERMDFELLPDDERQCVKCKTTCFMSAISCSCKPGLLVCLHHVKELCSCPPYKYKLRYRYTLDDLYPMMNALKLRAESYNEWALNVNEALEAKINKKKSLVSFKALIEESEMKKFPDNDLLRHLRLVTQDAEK
As to the kind of experiment: Histone lysine demethylase AlphaLISA assay, PLU1. To be noted: substrate H3K4M3B. An outline of the steps: as §1

pIC50: −log10 of the molar value.

One may read the pIC50 as the IC50 on a negative log10 scale, so that one unit is a factor of ten.

T2 sequence (P41229 2-1560): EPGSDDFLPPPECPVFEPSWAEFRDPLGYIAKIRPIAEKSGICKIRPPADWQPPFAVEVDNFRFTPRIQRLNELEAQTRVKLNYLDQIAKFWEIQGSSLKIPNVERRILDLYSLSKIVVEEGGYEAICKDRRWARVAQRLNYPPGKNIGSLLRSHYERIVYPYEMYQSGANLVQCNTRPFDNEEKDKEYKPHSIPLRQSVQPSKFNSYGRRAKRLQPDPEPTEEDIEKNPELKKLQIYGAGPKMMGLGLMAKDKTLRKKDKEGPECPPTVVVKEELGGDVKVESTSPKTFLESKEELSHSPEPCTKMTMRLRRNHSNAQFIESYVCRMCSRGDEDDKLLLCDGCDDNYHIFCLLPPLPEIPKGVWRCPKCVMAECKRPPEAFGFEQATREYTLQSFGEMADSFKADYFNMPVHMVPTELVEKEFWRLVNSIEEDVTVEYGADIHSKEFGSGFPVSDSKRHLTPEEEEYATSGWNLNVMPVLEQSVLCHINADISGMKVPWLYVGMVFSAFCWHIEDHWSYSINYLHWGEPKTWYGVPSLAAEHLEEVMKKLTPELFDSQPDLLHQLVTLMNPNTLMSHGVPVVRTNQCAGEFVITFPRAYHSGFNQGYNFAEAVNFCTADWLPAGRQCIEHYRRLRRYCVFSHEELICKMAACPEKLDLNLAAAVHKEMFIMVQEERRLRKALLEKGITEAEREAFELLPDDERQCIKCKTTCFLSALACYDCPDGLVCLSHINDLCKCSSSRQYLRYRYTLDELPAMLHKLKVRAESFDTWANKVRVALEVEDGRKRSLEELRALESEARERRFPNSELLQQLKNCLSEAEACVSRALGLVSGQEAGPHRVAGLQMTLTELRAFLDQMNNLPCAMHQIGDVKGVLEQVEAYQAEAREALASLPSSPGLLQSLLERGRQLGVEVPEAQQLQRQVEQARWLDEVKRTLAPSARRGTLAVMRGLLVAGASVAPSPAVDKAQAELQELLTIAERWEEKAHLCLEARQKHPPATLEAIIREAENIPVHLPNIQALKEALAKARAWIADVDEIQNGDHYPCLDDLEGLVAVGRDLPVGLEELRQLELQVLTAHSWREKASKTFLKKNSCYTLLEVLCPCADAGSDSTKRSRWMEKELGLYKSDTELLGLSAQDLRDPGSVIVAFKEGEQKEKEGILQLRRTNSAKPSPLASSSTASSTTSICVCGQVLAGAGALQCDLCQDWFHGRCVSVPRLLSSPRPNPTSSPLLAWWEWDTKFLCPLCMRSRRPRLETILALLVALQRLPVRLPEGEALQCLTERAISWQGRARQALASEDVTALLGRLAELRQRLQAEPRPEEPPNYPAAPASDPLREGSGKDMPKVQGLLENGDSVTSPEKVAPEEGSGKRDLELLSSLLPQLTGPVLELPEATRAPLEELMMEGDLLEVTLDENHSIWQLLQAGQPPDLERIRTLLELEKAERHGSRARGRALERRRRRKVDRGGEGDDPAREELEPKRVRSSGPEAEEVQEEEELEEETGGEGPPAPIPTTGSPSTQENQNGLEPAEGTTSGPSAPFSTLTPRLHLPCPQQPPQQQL

Consider “2-({[(1R)-2-hydroxy-1-{methyl[3-(1-methyl-1H-imidazol-2-yl)propyl]carbamoyl}ethyl]amino}methyl)pyridine-4-carboxylic acid [#37]”, for which the pIC50 in test [1] was > 7.00; in test [2], 6.00 to 7.00; in test [3], > 7.00; in test [4], ≤ 6.00; in test [5] it was ≤ 6.00.
As for `O=C(O)c1ccnc(CNCC(=O)N2CCCC2)c1` [#13, 2-({[2-oxo-2-(pyrrolidin-1-yl)ethyl]amino}methyl)pyridine-4-carboxylic acid], the pIC50 is > 7.00 in test [1]; > 7.00 in test [2]; > 7.00 in test [3]; ≤ 6.00 in test [4]; 6.00 to 7.00 in test [5]; > 7.00 in test [6].
Take `CCCCN(C)C(=O)CNCc1cc(C(=O)O)ccn1` [#14, 2-[({[butyl(methyl)carbamoyl]methyl}amino)methyl]pyridine-4-carboxylic acid]: the pIC50 in test [1] was > 7.00; in test [2], > 7.00; in test [4] it was ≤ 6.00; in test [5], 6.00 to 7.00; in test [6], > 7.00.
Consider `COc1ccccc1CN1CCC(NC(=O)CNCc2cc(C(=O)O)ccn2)CC1` [#29, 2-({[({1-[(2-methoxyphenyl)methyl]piperidin-4-yl}carbamoyl)methyl]amino}methyl)pyridine-4-carboxylic acid], for which the pIC50 in test [1], in test [2], in test [3], in test [5] and in test [6] was > 7.00 in each case.
On to `CCCCN1CCCC1CCNCc1cc(C(=O)O)ccn1` (stereo not drawn) [#34, 2-({[2-(1-butylpyrrolidin-2-yl)ethyl]amino}methyl)pyridine-4-carboxylic acid], for which the pIC50 in test [1] is > 7.00; in test [2], > 7.00; in test [3], > 7.00; in test [4], ≤ 6.00; in test [5], ≤ 6.00; in test [6], > 7.00.
On to `CC(C)=CCCC(C)CCN1CCC(NC(=O)CNCc2cc(C(=O)O)ccn2)C1` (stereo not drawn) [#35, 2-{[({[1-(3,7-dimethyloct-6-en-1-yl)pyrrolidin-3-yl]carbamoyl}methyl)amino]methyl}pyridine-4-carboxylic acid], for which the pIC50 in test [1] was > 7.00; in test [2] it was > 7.00; in test [3], > 7.00; in test [4], 6.00 to 7.00; in test [5] it was 6.00 to 7.00; in test [6], > 7.00.
As to `CCN(CCN(C)C)C(=O)CNCc1cc(C(=O)O)ccn1` [#49, 2-{[({[2-(dimethylamino)ethyl](ethyl)carbamoyl}methyl)amino]methyl}pyridine-4-carboxylic acid], the pIC50 was > 7.00 in test [1]; > 7.00 in test [2]; > 7.00 in test [3]; ≤ 6.00 in test [4]; 6.00 to 7.00 in test [5]; > 7.00 in test [6].

Source of the values: patent US10221139B2, “Inhibitors of histone demethylases” (Gilead Sciences, Inc., priority 2012, dated 2019).
